Reference: patent US10258614B2, “Compositions and methods for treating schizophrenia” (priority 2014, dated 2019)
“And” between values parts separate entries of the source, which are not always exact repeats. Equal values may be shown once. Where a name gives a salt, the structure may show the parent alone. Read-outs that look alike come from different tables or passages of the source.

Experiments:
QT/QTc interval = experiment: Analysis of relationship between QT/QTc and plasma concentrations; format: in vivo, human
Description: Increases in QTc interval were observed and seemed to be related to the exposure to Compound (I) and its metabolite BFB-520. […] A further analysis of the relationship between QT/QTc and Compound (I) and BFB-520 concentrations was performed.

[1] = tested on: guinea pig papillary muscle
Description: (§1) The effects of Compound (I) on the cardiovascular system were examined in in vitro and in vivo studies.

in vivo [2] = experiment: in vivo; set-up: species or system monkeys; conditions: monkey
Description: (§2) Pharmacokinetic (PK) studies of Compound (I) have been performed particularly in rats and monkeys. Following a single oral administration, Compound (I) was rapidly absorbed. Plasma radioactivity peaked between 0.63 and 2.75 hours in male rats, and between 3 and 3.5 hours in male monkeys. […] The elimination half-lives of radioactivity from plasma were 45.13 to 51.52 hours in rats and 174.74 to 184.78 hours in monkeys. The elimination half-lives of unchanged Compound (I) were 1.68 to 2.06 hours in rats, and 1.68 to 2.57 hours in monkeys.
(§3) After single administration of BFB-520 in monkeys, exposure levels of BFB-520, Compound (I) and BFB-999 increased with a dose increment larger than the proportionate one. […] Finally, the brain transfer of Compound (I) was studied with male rats after oral administration (10 mg/kg). […] The Kp value (brain/plasma concentration ratio) was 1.38 mL/g.
(§4) The major route of elimination of radioactivity in rats and monkeys following a single oral or intravenous administration was via the feces. The excretion to bile was 44.2% within 48 hours after a single oral administration to bile duct cannulated rats. Urinary excretion rates of radioactivity were about 35% in rats and monkeys. […] The enterohepatic circulation rate was determined to be about 27% after intraduodenal administration of bile samples from ^14C-Compound (I)-treated rats.

5-HT2A receptors [3] = biological target: 5-HT2A receptors (Homo sapiens, UniProt P28223); experiment: In vitro receptor binding studies
[4] = tested on: methamphetamine-induced hyperlocomotion; experiment: Methamphetamine-induced hyperlocomotion; format: in vivo, male Wistar rats; conditions: for methamphetamine-induced hyperlocomotion: male Wistar rats
Description: (§5) Compound (I) was tested in male Wistar rats in several behavioral paradigms designed to evaluate the potential for producing antipsychotic activity of drugs in humans. Compound (I) inhibited methamphetamine-, apomorphine-, and phencyclidine-induced hyperlocomotion in a similar manner to other antipsychotics.

[5] = Part 1 single dose MR formulation pharmacokinetic study in healthy CYP2D6 EM male subjects; format: in vivo, human; set-up: Cmax increase, food effect: unit not given beside the values; conditions: for AUC(0-t) / Cmax / half-life: plasma
Description: Part 1 of this study was designed to characterize and compare the pharmacokinetic (PK) profile of Compound (I) when administered as MR formulations, and food effects, following a single dose administration in a 6-way, within subject, crossover design.
Part 1 of the study is an open-label, non-randomized, single dose, 6-period crossover design in 12 healthy CYP 2D6 EM male subjects. For Part 1, subjects will receive the following regimens in a non-randomised manner:
Regimen A: MR Formulation prototype 1: 32 mg Compound (I) slow release administered in the fasted state
A Two-Part Study Designed to Evaluate the Pharmacokinetic Profile of Compound (I) and its Main Metabolites Following Single and Multiple Dose Modified Release Prototype Formulation Administration in Healthy CYP2D6 Extensive Metabolizer Male and Female Subjects, and to Evaluate the Relationship Between the Pharmacokinetic Profile of Compound (I) and its Main Metabolites and Cardiovascular Parameters.

[6] = tested on: human liver microsomes, cytochromes P450
IKr current = IKr current (Homo sapiens, UniProt Q12809); experiment: In vitro electrophysiology, cultured cells expressing cloned cardiac ion channels
Description: as §1

sigma2 receptors [7] = biological target: sigma2 receptors (Homo sapiens, UniProt Q5BJF2); experiment: In vitro receptor binding studies
[8] = tested on: phencyclidine-induced hyperlocomotion; experiment: Phencyclidine-induced hyperlocomotion; format: in vivo; conditions: male Wistar rats
Description: as §5

[9] = tested on: human P450 isoforms (CYP1A2, 2A6, 2B6, 2C8/9, 2C19, 2E1 and 3A4); experiment: Inhibition of human P450 isoforms; format: in vitro ADME
[10] = tested on: apomorphine-induced hyperlocomotion; experiment: Apomorphine-induced hyperlocomotion; format: in vivo; conditions: male Wistar rats
Description: as §5

[11] = tested on: spontaneous alternation behavior impairment induced by MK-801; experiment: Impairment of spontaneous alternation behavior induced by MK-801; set-up: species or system male Wistar rats; conditions: rat, in vivo
5-HT2A receptors [12] = experiment: In vivo functional tests
Description: (§6) In in vivo functional tests, Compound (I) acted as an antagonist at sigma2 and 5-HT2A receptors.

sigma2 receptors [13] = experiment: In vivo functional tests
Description: as §6

[14] = tested on: dopamine turnover, DA metabolites DOPAC and HVA; experiment: Dopamine turnover and DA metabolite output after oral administration; format: in vivo
Description: as §6

[15] = tested on: PCP-induced social interaction impairment; experiment: PCP-induced social interaction impairment; format: in vivo, male Wistar rats; conditions: after repeated administration
CYP2D6 = CYP2D6 (Homo sapiens, UniProt P10635); experiment: Inhibition of human P450 isoforms; format: in vitro ADME
in vivo [16] = experiment: in vivo; set-up: species or system male rats; conditions: rat, po, 10 mg/kg
Description: as §3

al-adrenergic receptors = experiment: In vitro receptor binding studies
DA receptors = experiment: In vitro receptor binding studies; conditions: read-out: IC50 (affinity for DA receptors)
sleep architecture = experiment: CYR-101C01 Phase 2a study, sleep recordings (PSG) and PSQI; format: in vivo, human
in vivo [17] = experiment: in vivo; set-up: species or system rats; conditions: rat
Description: as §2
Food and gender effects were also assessed in rats.
as §4

rats = experiment: Safety pharmacology studies (general activity and behavior, CNS, respiratory, gastrointestinal, water and electrolyte excretion); format: in vivo
Description: In a series of safety pharmacology studies, the effects of Compound (I) on general activity and behavior, the CNS, respiratory function, gastrointestinal system, and water and electrolyte excretion were examined in rats at an oral dose range of 1 to 30 mg/kg Compound (I) induced various changes in general activity and behavior. These clinical signs were observed between 0.25 to 4 hours post-dosing and disappeared by 6 hours post-dosing. Compound (I) inhibited CNS function and decreased thresholds for electroshock-induced convulsion.

IKr current, sequence (Q12809 whole entry): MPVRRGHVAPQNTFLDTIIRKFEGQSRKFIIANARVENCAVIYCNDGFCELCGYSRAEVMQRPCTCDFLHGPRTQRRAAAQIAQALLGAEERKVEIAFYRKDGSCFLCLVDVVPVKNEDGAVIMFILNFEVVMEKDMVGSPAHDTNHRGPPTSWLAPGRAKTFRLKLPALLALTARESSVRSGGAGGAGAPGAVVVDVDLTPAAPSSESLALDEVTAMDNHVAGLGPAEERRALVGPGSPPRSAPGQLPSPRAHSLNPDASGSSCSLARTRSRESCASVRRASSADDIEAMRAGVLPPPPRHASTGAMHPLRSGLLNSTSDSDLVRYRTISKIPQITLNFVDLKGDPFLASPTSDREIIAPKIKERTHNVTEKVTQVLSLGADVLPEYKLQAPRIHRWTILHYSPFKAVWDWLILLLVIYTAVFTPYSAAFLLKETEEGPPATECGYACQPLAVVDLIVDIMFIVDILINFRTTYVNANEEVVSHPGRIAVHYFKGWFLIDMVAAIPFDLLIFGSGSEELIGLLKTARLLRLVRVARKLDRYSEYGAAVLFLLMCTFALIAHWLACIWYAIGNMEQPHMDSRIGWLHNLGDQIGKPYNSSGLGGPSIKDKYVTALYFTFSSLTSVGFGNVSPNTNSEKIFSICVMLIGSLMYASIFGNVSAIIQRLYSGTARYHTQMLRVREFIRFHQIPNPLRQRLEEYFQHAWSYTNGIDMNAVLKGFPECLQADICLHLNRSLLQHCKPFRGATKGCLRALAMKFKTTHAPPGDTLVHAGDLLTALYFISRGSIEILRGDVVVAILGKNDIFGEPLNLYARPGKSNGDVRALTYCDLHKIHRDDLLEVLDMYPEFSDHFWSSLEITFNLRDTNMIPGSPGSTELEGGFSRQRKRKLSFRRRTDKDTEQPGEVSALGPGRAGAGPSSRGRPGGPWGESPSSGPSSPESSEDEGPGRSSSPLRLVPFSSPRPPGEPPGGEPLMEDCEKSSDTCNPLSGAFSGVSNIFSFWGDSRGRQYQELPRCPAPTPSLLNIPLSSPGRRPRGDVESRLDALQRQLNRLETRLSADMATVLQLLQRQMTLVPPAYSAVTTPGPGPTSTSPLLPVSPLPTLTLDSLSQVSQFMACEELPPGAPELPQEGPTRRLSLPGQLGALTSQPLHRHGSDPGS
5-HT2A receptors (Homo sapiens, UniProt P28223), sequence (P28223 whole entry): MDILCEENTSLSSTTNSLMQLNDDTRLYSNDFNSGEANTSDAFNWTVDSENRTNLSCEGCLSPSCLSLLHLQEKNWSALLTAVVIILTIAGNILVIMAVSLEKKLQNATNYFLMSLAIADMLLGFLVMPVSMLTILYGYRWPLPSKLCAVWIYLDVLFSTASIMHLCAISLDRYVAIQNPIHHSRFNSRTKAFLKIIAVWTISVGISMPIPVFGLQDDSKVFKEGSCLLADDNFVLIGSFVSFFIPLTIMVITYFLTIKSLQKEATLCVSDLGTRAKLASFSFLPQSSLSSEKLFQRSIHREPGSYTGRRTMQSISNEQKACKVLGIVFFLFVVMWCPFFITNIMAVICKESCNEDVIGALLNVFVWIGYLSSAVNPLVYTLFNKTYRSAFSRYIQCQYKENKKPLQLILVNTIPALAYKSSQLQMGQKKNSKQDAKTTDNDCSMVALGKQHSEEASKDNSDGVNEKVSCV
sigma2 receptors (Homo sapiens, UniProt Q5BJF2), sequence (Q5BJF2 whole entry): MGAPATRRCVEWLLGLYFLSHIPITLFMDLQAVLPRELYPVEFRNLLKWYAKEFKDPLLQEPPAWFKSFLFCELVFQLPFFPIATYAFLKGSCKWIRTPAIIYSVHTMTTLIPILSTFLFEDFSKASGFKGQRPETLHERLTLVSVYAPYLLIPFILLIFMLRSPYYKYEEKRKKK
CYP2D6, sequence (P10635 whole entry, canonical isoform): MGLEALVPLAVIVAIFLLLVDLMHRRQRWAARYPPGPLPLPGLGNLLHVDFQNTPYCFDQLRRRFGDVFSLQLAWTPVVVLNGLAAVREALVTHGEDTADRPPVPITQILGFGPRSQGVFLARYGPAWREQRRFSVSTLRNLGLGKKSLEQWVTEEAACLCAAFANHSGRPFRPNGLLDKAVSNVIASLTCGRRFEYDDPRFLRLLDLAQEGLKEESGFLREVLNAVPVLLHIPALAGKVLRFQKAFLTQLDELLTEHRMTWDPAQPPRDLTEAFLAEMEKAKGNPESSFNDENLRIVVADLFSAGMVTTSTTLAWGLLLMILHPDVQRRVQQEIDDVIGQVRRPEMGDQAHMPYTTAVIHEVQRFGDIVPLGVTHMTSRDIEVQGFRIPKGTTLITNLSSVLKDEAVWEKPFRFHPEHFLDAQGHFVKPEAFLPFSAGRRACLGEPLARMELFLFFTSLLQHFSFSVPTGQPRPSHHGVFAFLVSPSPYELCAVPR

## O=C1c2ccccc2CN1CC1CCN(CC(O)c2ccc(F)cc2)CC1 (stereo not drawn) [BFB-520]
QT/QTc interval; human, in vivo
  Cmax that should not be exceeded to avoid QT prolongation: ≤ 12 ng/mL
[1]
  concentration that prolonged the action potential duration (APD): ≥ 100 nM
In vivo [2]
  time to maximum concentration post-dosing: ≤ 4 h
5-HT2A receptors [3]
  affinity for 5-HT2A receptors compared with Compound (I): lower
[4]
  methamphetamine-induced hyperlocomotion: inhibited
[4]; methamphetamine-induced hyperlocomotion
  ED50 compared with Compound (I): higher than that of Compound (I)
[5]; human, in vivo
  Half-life Fed to Fasted ratio: 0.8
  dose proportionality of PK: less so
[6]
  metabolizing enzymes: metabolized by CYP2D6 and CYP3A4
IKr current
  IC50: 181 nM
sigma2 receptors [7]
  affinity for σ2 receptors compared with Compound (I): lower affinity

## O=C(CN1CCC(CN2Cc3ccccc3C2=O)CC1)c1ccc(F)cc1 [Compound (I), 2-((1-(2-(4-Fluorophenyl)-2-oxoethyl)piperidin-4-yl)methyl)isoindolin-1-one monohydrochloride dihydrate]
[8]
  phencyclidine-induced hyperlocomotion: inhibited
[9]
  inhibitory effects on human P450 isoforms (CYP1A2, 2A6, 2B6, 2C8/9, 2C19, 2E1 and 3A4): No remarkable inhibitory effects
[10]
  apomorphine-induced hyperlocomotion: inhibited
QT/QTc interval; human plasma, read-out: Cmax that should not be exceeded to avoid QT prolongation
  Cmax: ≤ 80 ng/mL
[11]
  impairment of spontaneous alternation behavior induced by MK-801: improved
5-HT2A receptors [12]
  functional activity at 5-HT2A receptors: antagonist
sigma2 receptors [13]
  functional activity at sigma2 receptors: antagonist
[14]; effective dose levels in animal models of antipsychotic activity
  monoamine levels: did not affect
[14]; oral administration
  dopamine turnover in the accumbens and striatum: slightly increased
[14]; oral, high dose levels
  output of DA metabolites such as DOPAC and HVA in prefrontal cortex: increased the output
[15]
  PCP-induced social interaction impairment: significantly ameliorated
In vivo [2]; male, po
  time of peak plasma radioactivity: 3 to 3.5 h
In vivo [2]
  urinary excretion rate of radioactivity: about 35%
In vivo [2]; po
  bioavailability: ≥ 90%
  half-life: 1.68 to 2.57 h
  oral absorption rate: 70.0-99.9%
CYP2D6
  inhibitory effect on CYP2D6: weak inhibitory effect
5-HT2A receptors [3]; 5-HT2A receptor
  Ki: 7.53 nM
[4]
  methamphetamine-induced hyperlocomotion: inhibited
In vivo [16]; male
  Cmax: 3160 ng/mL and 4950 ng/g
In vivo [16]
  Kp value (brain/plasma concentration ratio): 1.38 mL/g
al-adrenergic receptors
  Ki: 14.4 nM
DA receptors
  IC50: > 1000 nM
[5]; MR formulation under fasted conditions
  dose proportionality of PK: generally dose proportional
[5]; MR formulation, fed vs fasted
  Cmax increase, food effect: ~2 ×
  Half-life Fed to Fasted ratio: 0.5
[5]; Period 1, 32 mg Slow Release, Fasted, plasma analyte
  Tiag, Median: 0 h
[5]; male, human, oral, Period 1, 32 mg Slow Release, Fasted, plasma analyte, read-out: Tmax, Median
  Tmax: 2.25 h
[5]; male, human, oral, 32 mg, Period 1, 32 mg Slow Release, Fasted, plasma analyte, read-out: AUClast, Mean
  AUC(0-t): 212 ng·h/mL
[5]; male, human, oral, 32 mg, Period 1, 32 mg Slow Release, Fasted, plasma analyte, read-out: AUClast, Median
  AUC(0-t): 220 ng·h/mL
[5]; male, human, oral, 32 mg, Period 1, 32 mg Slow Release, Fasted, plasma analyte, read-out: Cmax, Mean
  Cmax: 22.5 ng/mL
[5]; male, human, oral, 32 mg, Period 1, 32 mg Slow Release, Fasted, plasma analyte, read-out: Cmax, Median
  Cmax: 23.7 ng/mL
[5]; male, human, oral, 32 mg, Period 1, 32 mg Slow Release, Fasted, plasma analyte, read-out: t½, Mean (converted)
  half-life: 6.26 h
[5]; male, human, oral, 32 mg, Period 1, 32 mg Slow Release, Fasted, plasma analyte, read-out: t½, Median (converted)
  half-life: 5.35 h
[5]; male, human, oral, MR formulation under fasted conditions, read-out: Half-life
  half-life: 3 to 8 h
[6]
  metabolizing enzymes: mainly metabolized by enzymatic reaction other than CYP isoforms
IKr current
  IC50: 325 nM
Sleep architecture; patients
  sleep initiation parameters (sleep onset latency, latency to persistent sleep): improved
Sleep architecture; patients, PSG
  slow wave sleep (SWS) in the first third of the night: significantly increased
  slow wave sleep (SWS) in the last third of the night: decreased
Sleep architecture; vs placebo
  subjective sleep quality as measured by PSQI: improvement was greater with Compound (I) than with placebo although not statistically significant
In vivo [17]; male, 168 h
  recovery of given radioactivity in carcass: 0.7%
In vivo [17]; male, po
  time of peak plasma radioactivity: 0.63 to 2.75 h
In vivo [17]
  enterohepatic circulation rate: about 27%
  pharmacokinetic parameters for total radioactivity, female vs male rats: comparable
  urinary excretion rate of radioactivity: about 35%
In vivo [17]; po
  bioavailability: 52.4 to 64.5%
  half-life: 1.68 to 2.06 h
  oral absorption rate: 90.3-94.7%
  transfer into milk: rapidly transferred into milk and were slowly eliminated
sigma2 receptors [7]; sigma2 receptor
  Ki: 8.19 nM
rats; oral 1 to 30 mg/kg
  CNS function: inhibited
  thresholds for electroshock-induced convulsion: decreased
  time by which clinical signs disappeared post-dosing: ≤ 6 h
rats; oral, high doses (>10 mg/kg)
  effects at high doses: affected respiratory function, inhibited gastric emptying, damaged the gastrointestinal membrane, decreased urine volume, and increased urine potassium excretion
